Test results as given in patent publication US12697337B2, “Solid dispersions” (InventisBio Co., Ltd., priority 2021, dated 2026).

Experiments:
[1] = Solid state stability of Form B; type: physicochemical; conditions: for Purity-7 d (Area %): open, 7 days
Description: Solid State Stability of Form B: About 10 mg of Form B was open placed at 40° C./75% RH and 60° C. for 7 days and at 25° C./92.5% RH for 10 days, respectively. Prepare samples in duplicate (n =2) per condition. The solids were analyzed by XRPD and HPLC (only for 40° C./75% RH and 60° C.).

[2] = Dissolution evaluation in FaSSIF medium; type: physicochemical
Description: Dissolution evaluation in FaSSIF medium: To evaluate in-vitro release performance of SDDs, dissolution in FaSSIF (pH=6.5±0.05) was performed, and the crystalline Compound 1 (Form B) was also tested as control.
Appropriate amount of Compound 1 or SDD (SDD-0 to SDD-8) was weighed into 40-mL glass vials respectively, and then added 10 mL of FaSSIF medium to a target API concentration of 1 mg/mL, followed by hand shake to suspend well. Place the glass bottle on 37° C. hot-stage by stirring magnetically at 200 rpm. At each time point of 10 min, 20 min, 40 min, 60 min and 120 min, 500 μL suspension was pipetted respectively and centrifuged (14,000 rpm, 3 min) to isolate supernatant and dilute with diluent for UPLC analysis. Finally, the pH value of solution (120 min) were measured by pH meter.
The UPLC method used for the dissolution analysis above is UPLC Method 2, which is shown below: […]

[3] = 1-week stability evaluation of SDD; type: physicochemical; conditions: for Appearance / Purity (%) / XRPD: 1 week; for Initial purity (%): before storage
Description: A brief description of the methods used for PLM, XRPD, Purity and mDSC analysis of the above SDD samples is shown below. • PLM analysis of the SDD samples were conducted using Nikon LV100POL equipped with 5 megapixel CCD, with the physical lens set at 20×. • For XRPD analysis, samples were spread onto the Si-substrate for XRPD test using the parameters as below: Tube: Cu: K-Alpha (λ=1.5418 Å); Generator: Voltage: 40 kV; Current: 40 mA; Scan Scope: 2 or 3 to 40 deg; Time/step(s) 0.06 s; Total time(s) 120 s or 117.36 s. • For mDSC analysis, SDD powders were weighed into Tzero aluminum sample pan from TA Instruments covered by pinhole lid for mDSC test using the parameters as below: Start temperature at 30° C.; Modulate +/−1° C. every 60 seconds; Ramp 2° C./min to 300° C. • The UPLC method used for the assay and purity analysis above is UPLC Method 1, which is shown below:
Appropriate quantity of SDDs and crystalline Compound 1 (Form B) were placed into 40-mL vials respectively.
The samples (closed) were covered by plastic cap tightly and sealed by parafilm and samples (open) were just covered by aluminum foil with pinholes. Then they were stored at 2-8° C., 25° C./60% RH and 40° C./75% RH stability chamber respectively for 1 week. The samples were analyzed by XRPD to check the physical stability, and meanwhile dissolved with diluent for UPLC analysis (UPLC Method 1) to check the chemical stability.

[4] = Dynamic moisture sorption analysis (DVS); type: physicochemical
Description: Dynamic Moisture Sorption Analysis (DVS)
Small scale up of Form B: Form B was small scaled up for DVS analysis, solubility and stability studies. 103.02 mg of Compound 1 in Form A was dissolved in 5 mL of MeOH (48V) at RT. After filtration, 10 mL of water was added into the filtrate. Precipitation occurred quickly. The suspension was kept stirring at RT for about 2 hours. Solid samples were collected by filtration, dried under vacuum at 50° C. overnight. 94.16 mg solid was obtained with a yield of 91%. This solid was used for the DVS testing.

[5] = PCT/CN2020/137276 and PCT/CN2019/126230; cited from earlier work
[6] = pKa measurement of Compound 1; type: physicochemical; conditions: measured pKa; free base
Text: Compound 1 has a measured pKa of around 1 and typically exists in a free base form. Unless otherwise explicitly stated to the contrary, Compound 1 herein should be understood as existing in its free base form as opposed to a salt formed with an acid or base. The synthesis and utility of Compound 1 has been described in Applicant's previous applications, such as International Application Nos. PCT/CN2020/091274, filed May 20, 2020, published as WO2020/233592, PCT/CN2020/137276, filed Dec. 17, 2020, and PCT/CN2019/126230, filed Dec. 18, 2019, the contents of each of which are herein incorporated by reference in their entireties. […] PCT/CN2020/137276 and PCT/CN2019/126230 also describe various isolated forms, substantially pure forms, and/or solid forms of Compound 1 and their preparation methods.

KRAS G12C = KRAS G12C (Homo sapiens, UniProt P01116, G12C); conditions: as described in previous applications; cited from earlier work
Sequence of KRAS G12C (P01116 1-188 isoform P01116-2 G12C): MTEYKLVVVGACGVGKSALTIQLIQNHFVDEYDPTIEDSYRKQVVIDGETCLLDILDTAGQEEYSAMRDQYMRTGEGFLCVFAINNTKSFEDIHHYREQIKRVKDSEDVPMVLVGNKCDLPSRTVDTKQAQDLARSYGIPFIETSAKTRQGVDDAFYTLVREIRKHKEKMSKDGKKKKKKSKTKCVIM

various cancers = conditions: as described in previous applications; cited from earlier work
[7] = Table 6, FaSSIF (10 mL) pH 6.5, 37° C., target API 1 mg/mL
[8] = Table 11, FaSSIF (10 mL) pH 6.5

C=CC(=O)N1C[C@H](C)N(c2nc(=O)n(-c3c(C4CC4)ncnc3C3CC3)c3nc(-c4c(N)cccc4F)c(F)cc23)C[C@H]1C [Compound 1 (Form B)]
XRPD ([1]; 25° C./92.5% RH, after 10 d): Unchanged
chemical stability ([1]; 40° C./75% RH for 7 days): chemically stable
XRPD ([1]; 40° C./75% RH, after 7 d): Unchanged
Purity-7 d (Area %) ([1]; 40° C./75% RH): 98.97 Area %
purity decrease ([1]; 60° C. for 7 days): 0.16%
XRPD ([1]; 60° C., after 7 d): Unchanged
Purity-7 d (Area %) ([1]; 60° C.): 98.82 Area %
physical stability ([1]; at test conditions (40° C./75% RH, 60° C., 25° C./92.5% RH)): physically stable
Initial Purity (Area %) ([1]; before storage): 98.98 Area %
API concentration in dissolution medium, 10 min [2, 7]: 12.5 µg/mL
API concentration in dissolution medium, 20 min [2, 7]: 13.8 µg/mL
API concentration in dissolution medium, 40 min [2, 7]: 15.0 µg/mL
API concentration in dissolution medium, 60 min [2, 7]: 15.5 µg/mL
API concentration in dissolution medium, 120 min [2, 7]: 15.9 µg/mL
pH ([2]; Table 6, pH value of solution at 120 min of FaSSIF dissolution): 6.42
API concentration in dissolution medium, 10 min [2, 8]: 10.8 µg/mL
API concentration in dissolution medium, 20 min [2, 8]: 12.5 µg/mL
API concentration in dissolution medium, 40 min [2, 8]: 14.3 µg/mL
API concentration in dissolution medium, 60 min [2, 8]: 14.2 µg/mL
API concentration in dissolution medium, 120 min [2, 8]: 14.9 µg/mL
pH ([2]; Table 11, pH of solution after FaSSIF dissolution): 6.41
API concentration in dissolution medium, 10 min ([2]; Table 15, FaSSIF (10 mL)): 8.1 µg/mL
API concentration in dissolution medium, 20 min ([2]; Table 15, FaSSIF (10 mL)): 8.4 µg/mL
API concentration in dissolution medium, 40 min ([2]; Table 15, FaSSIF (10 mL)): 9.0 µg/mL
API concentration in dissolution medium, 60 min ([2]; Table 15, FaSSIF (10 mL)): 9.1 µg/mL
API concentration in dissolution medium, 120 min ([2]; Table 15, FaSSIF (10 mL)): 9.7 µg/mL
pH ([2]; Table 15, pH of solution after FaSSIF dissolution): 6.48
Appearance ([3]; Table 8, 2-8° C., closed): Yellow powder
Purity (%) ([3]; Table 8, 2-8° C., closed): 98.81%
XRPD ([3]; Table 8, 2-8° C., closed): Crystal
Appearance ([3]; Table 8, 25° C./60% RH, open): Yellow powder
Purity (%) ([3]; Table 8, 25° C./60% RH, open): 98.86%
XRPD ([3]; Table 8, 25° C./60% RH, open): Crystal
Appearance ([3]; Table 8, 40° C./75% RH, open): Yellow powder
Purity (%) ([3]; Table 8, 40° C./75% RH, open): 98.79%
XRPD ([3]; Table 8, 40° C./75% RH, open): Crystal
Initial purity (%) ([3]; Table 8): 98.75%
Appearance ([3]; Table 12, 2-8° C., closed): Yellow powder
Purity (%) ([3]; Table 12, 2-8° C., closed): 98.81%
XRPD ([3]; Table 12, 2-8° C., closed): Crystal
Appearance ([3]; Table 12, 25° C./60% RH, open): Yellow powder
Purity (%) ([3]; Table 12, 25° C./60% RH, open): 98.86%
XRPD ([3]; Table 12, 25° C./60% RH, open): Crystal
Appearance ([3]; Table 12, 40° C./75% RH, open): Yellow powder
Purity (%) ([3]; Table 12, 40° C./75% RH, open): 98.79%
XRPD ([3]; Table 12, 40° C./75% RH, open): Crystal
Initial purity (%) ([3]; Table 12): 98.75%
water absorbed (DVS) ([4]; 0-80% RH, 25° C.): ~ 0.84%
crystal form after DVS testing ([4]; XRPD after DVS): without changing of crystal form
relative stability among crystalline Forms A, B, C, D [5]: more stable crystalline form

C=CC(=O)N1C[C@H](C)N(c2nc(=O)n(-c3c(C4CC4)ncnc3C3CC3)c3nc(-c4c(N)cccc4F)c(F)cc23)C[C@H]1C [Compound 1]
pKa [6]: ~1
KRAS G12C inhibition (KRAS G12C): potent KRAS G12C inhibitor
efficacy in in vivo mouse models (various cancers): effective in treating various cancers
